Experimental data reported in ChEMBL document CHEMBL3832074, “DailyMed|setid=ad6a2b73-29d4-4ced-ba42-4c2ad1c5a1af | ENTACAPONE - entacapone tablet, film coated|Sun Pharma Global FZE”.

Key:
Type in all cases: ADME, organism-based
Homo sapiens [1] = experiment: (§1) Pharmacokinetic parameters for Enctacpone after single oral administartion of 200 and 800 mg Entacapone tablets to volunteers.; set-up: dose 200 mg, route oral; settings: in vivo, dosed compound id 40, dosed compound name ENTACAPONE, gender male and female, regimen Single dose, route oral, tissue Plasma
[2] = as §1; set-up: dose 200 mg, route oral; settings: human, in vivo, 200 mg, dosed compound id 40, dosed compound name ENTACAPONE, regimen Single dose, tissue Plasma
Homo sapiens [3] = experiment: Pharmcokinetic parameters for Enctacpone following oral administration of Entacapone.; settings: in vivo, dosed compound id 40, dosed compound name ENTACAPONE; for Excretion: po

Inhibition (Homo sapiens [1]; at 200 mg): 65%
Inhibition (Homo sapiens [1]; at 800 mg): 82%
Cmax [2]: 1200 ng/mL
CL (Homo sapiens [3]; route iv, tissue Plasma): 850 mL/min
Excretion (Homo sapiens [3]; tissue Feces): 90%
Excretion (Homo sapiens [3]; tissue Urine): 10%
Structure (SMILES): CCN(CC)C(=O)/C(C#N)=C/c1cc(O)c(O)c([N+](=O)[O-])c1 [ENTACAPONE]
